# PubChem BioAssay (NCI)
#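 GI50 marks 50% less growth. At the TGI there is no net growth.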
# Legend:
# Assay in all cases: growth of human tumour cells (NCI), 384-well format
# COLO 205 colon = test system: COLO 205 colon
# OVCAR-8 ovarian = test system: OVCAR-8 ovarian
# SR leukemia = test system: SR leukemia
# SK-MEL-28 melanoma = test system: SK-MEL-28 melanoma
# SF-268 CNS = test system: SF-268 CNS
# HCC-2998 colon = test system: HCC-2998 colon
# SNB-19 CNS = test system: SNB-19 CNS
# NCI-H460 NSCLC = test system: NCI-H460 NSCLC
# HOP-62 NSCLC = test system: HOP-62 NSCLC
# NCI-H322M lung = test system: NCI-H322M lung
# MOLT-4 leukemia = test system: MOLT-4 leukemia
# OVCAR-4 ovarian = test system: OVCAR-4 ovarian
# HCT-15 colon = test system: HCT-15 colon
# A498 renal = test system: A498 renal
# NCI-H226 lung = test system: NCI-H226 lung
# NCI-H23 lung = test system: NCI-H23 lung
# DU-145 prostate = test system: DU-145 prostate
# EKVX NSCLC = test system: EKVX NSCLC
# UO-31 renal = test system: UO-31 renal
# NCI/ADR-RES ovarian = test system: NCI/ADR-RES ovarian
# M14 melanoma = test system: M14 melanoma
# SNB-75 CNS = test system: SNB-75 CNS
# MDA-MB-435 melanoma = test system: MDA-MB-435 melanoma
# K-562 leukemia = test system: K-562 leukemia
# MDA-MB-231 breast = test system: MDA-MB-231 breast
# OVCAR-5 ovarian = test system: OVCAR-5 ovarian
# MALME-3M melanoma = test system: MALME-3M melanoma
# NCI-H522 lung = test system: NCI-H522 lung
# SK-MEL-5 melanoma = test system: SK-MEL-5 melanoma
# LOX IMVI melanoma = test system: LOX IMVI melanoma
# CCRF-CEM leukemia = test system: CCRF-CEM leukemia
# SF-539 CNS = test system: SF-539 CNS
# RXF 393 renal = test system: RXF 393 renal
# ACHN renal = test system: ACHN renal
# T-47D breast = test system: T-47D breast
# 786-0 renal = test system: 786-0 renal
# HS 578T breast = test system: HS 578T breast
# U251 glioblastoma = test system: U251 glioblastoma
# HOP-92 NSCLC = test system: HOP-92 NSCLC
# SF-295 CNS = test system: SF-295 CNS
# OVCAR-3 ovarian = test system: OVCAR-3 ovarian
# SW-620 colon = test system: SW-620 colon
# SK-OV-3 ovarian = test system: SK-OV-3 ovarian
# A549 NSCLC = test system: A549 NSCLC
# RPMI-8226 leukemia = test system: RPMI-8226 leukemia
# PC-3 prostate = test system: PC-3 prostate
# MDA-MB-468 breast = test system: MDA-MB-468 breast
# BT-549 breast = test system: BT-549 breast
# UACC-257 melanoma = test system: UACC-257 melanoma
# SN12C renal = test system: SN12C renal
# HT29 colon = test system: HT29 colon
# HL-60(TB) leukemia = test system: HL-60(TB) leukemia
smiles,measurement,setting,value
CC(C)[C@]12O[C@H]1[C@@H]1O[C@]13[C@]1(O[C@H]1C[C@H]1C4=C(CC[C@@]13C)C(=O)OC4)[C@@H]2O,GI50,COLO 205 colon,< 10 nM
same,TGI,COLO 205 colon,23.3 nM
same,GI50,OVCAR-8 ovarian,10.6 nM
same,TGI,OVCAR-8 ovarian,36.6 nM
same,GI50,SR leukemia,< 10 nM
same,TGI,SR leukemia,< 10 nM
same,GI50,SK-MEL-28 melanoma,< 10 nM
same,TGI,SK-MEL-28 melanoma,< 10 nM
same,GI50,SF-268 CNS,10.2 nM
same,TGI,SF-268 CNS,27.7 nM
same,GI50,HCC-2998 colon,13.7 nM
same,TGI,HCC-2998 colon,31.3 nM
same,GI50,SNB-19 CNS,21.1 nM
same,TGI,SNB-19 CNS,> 100 µM
same,GI50,NCI-H460 NSCLC,< 10 nM
same,TGI,NCI-H460 NSCLC,< 10 nM
same,GI50,HOP-62 NSCLC,< 10 nM
same,TGI,HOP-62 NSCLC,< 10 nM
same,GI50,NCI-H322M lung,10.8 nM
same,TGI,NCI-H322M lung,31.8 nM
same,GI50,MOLT-4 leukemia,< 10 nM
same,TGI,MOLT-4 leukemia,< 10 nM
same,GI50,OVCAR-4 ovarian,< 10 nM
same,TGI,OVCAR-4 ovarian,< 10 nM
same,GI50,HCT-15 colon,< 10 nM
same,TGI,HCT-15 colon,31.6 nM
same,GI50,A498 renal,< 10 nM
same,TGI,A498 renal,27.5 nM
same,GI50,NCI-H226 lung,< 10 nM
same,TGI,NCI-H226 lung,12.3 nM
same,GI50,NCI-H23 lung,< 10 nM
same,TGI,NCI-H23 lung,< 10 nM
same,GI50,DU-145 prostate,< 10 nM
same,TGI,DU-145 prostate,< 10 nM
same,GI50,EKVX NSCLC,10 nM
same,TGI,EKVX NSCLC,30.2 nM
same,GI50,UO-31 renal,11.4 nM
same,TGI,UO-31 renal,51.3 nM
same,GI50,NCI/ADR-RES ovarian,< 10 nM
same,TGI,NCI/ADR-RES ovarian,26.1 nM
same,GI50,M14 melanoma,11.7 nM
same,TGI,M14 melanoma,24.1 nM
same,GI50,SNB-75 CNS,< 10 nM
same,TGI,SNB-75 CNS,21.9 nM
same,GI50,MDA-MB-435 melanoma,< 10 nM
same,TGI,MDA-MB-435 melanoma,18.1 nM
same,GI50,K-562 leukemia,< 10 nM
same,TGI,K-562 leukemia,18.8 nM
same,GI50,MDA-MB-231 breast,< 10 nM
same,TGI,MDA-MB-231 breast,21.7 nM
same,GI50,OVCAR-5 ovarian,< 10 nM
same,TGI,OVCAR-5 ovarian,> 100 µM
same,GI50,MALME-3M melanoma,< 10 nM
same,TGI,MALME-3M melanoma,21 nM
same,GI50,NCI-H522 lung,< 10 nM
same,TGI,NCI-H522 lung,< 10 nM
same,GI50,SK-MEL-5 melanoma,< 10 nM
same,TGI,SK-MEL-5 melanoma,12.2 nM
same,GI50,LOX IMVI melanoma,< 10 nM
same,TGI,LOX IMVI melanoma,< 10 nM
same,GI50,CCRF-CEM leukemia,< 10 nM
same,TGI,CCRF-CEM leukemia,15.7 nM
same,GI50,SF-539 CNS,< 10 nM
same,TGI,SF-539 CNS,15.4 nM
same,GI50,RXF 393 renal,< 10 nM
same,TGI,RXF 393 renal,< 10 nM
same,GI50,ACHN renal,< 10 nM
same,TGI,ACHN renal,32.4 nM
same,GI50,T-47D breast,< 10 nM
same,TGI,T-47D breast,37 nM
same,GI50,786-0 renal,< 10 nM
same,TGI,786-0 renal,17.7 nM
same,GI50,HS 578T breast,< 10 nM
same,TGI,HS 578T breast,18.4 nM
same,GI50,U251 glioblastoma,11.3 nM
same,TGI,U251 glioblastoma,66 nM
same,GI50,HOP-92 NSCLC,12.3 nM
same,TGI,HOP-92 NSCLC,47.7 nM
same,GI50,SF-295 CNS,< 10 nM
same,TGI,SF-295 CNS,21.3 nM
same,GI50,OVCAR-3 ovarian,< 10 nM
same,TGI,OVCAR-3 ovarian,12.4 nM
same,GI50,SW-620 colon,< 10 nM
same,TGI,SW-620 colon,33.3 nM
same,GI50,SK-OV-3 ovarian,< 10 nM
same,TGI,SK-OV-3 ovarian,36.5 nM
same,GI50,A549 NSCLC,15 nM
same,TGI,A549 NSCLC,> 100 µM
same,GI50,RPMI-8226 leukemia,< 10 nM
same,TGI,RPMI-8226 leukemia,< 10 nM
same,GI50,PC-3 prostate,12.3 nM
same,TGI,PC-3 prostate,52 nM
same,GI50,MDA-MB-468 breast,< 10 nM
same,TGI,MDA-MB-468 breast,20.8 nM
same,GI50,BT-549 breast,< 10 nM
same,TGI,BT-549 breast,< 10 nM
same,GI50,UACC-257 melanoma,< 10 nM
same,TGI,UACC-257 melanoma,21.2 nM
same,GI50,SN12C renal,< 10 nM
same,TGI,SN12C renal,12.4 nM
same,GI50,HT29 colon,11.1 nM
same,TGI,HT29 colon,> 100 µM
same,GI50,HL-60(TB) leukemia,< 10 nM
same,TGI,HL-60(TB) leukemia,< 10 nM
